Assay results as given in US20240315992A1, “AMINOXY ACID-BASED ANTIBACTERIAL COMPOUNDS AND METHODS THEREOF” (The University of Hong Kong, priority 2023, published 2024).

Legend:
[1] = system: Staphylococcus aureus ATCC 29213 persister; assay: Killing of Staphylococcus aureus persister; assay type: cell-based; conditions: 10×MIC, persisters enriched with ciprofloxacin
Text: FIG. 4 is a line graph showing the killing kinetics of the compound 8 and compound 35 towards Staphylococcus aureus persister compared to the conventional antibiotics. […] Data were representative of 3 independent experiments±S.D.
Persisters are the phenotypic variants of the normal bacteria with reduced metabolism. They highly tolerate to the conventional […]. Persisters was enriched by the addition of 100-fold minimum inhibitory concentration of bactericidal antibiotics ciprofloxacin to the stationary phase bacteria. After 24 hours' culture, ciprofloxacin was removed. Persisters were treated with compound 8, compound 35 or different conventional antibiotics.
S. aureus ATCC 29213 cells were sub-cultured from an overnight culture in CAMH 1:100 for 24 hours at 37° C. with 250 rpm shaking speed. Persisters were prepared by addition of ciprofloxacin hydrochloride (25 μg/mL, 100×MIC in Staphylococcus aureus ATCC 29213) and cultured for 24 hours at 37° C. with 250 rpm shaking speed. Persisters were washed by PBS (12,000×g, 3 minutes) and resuspended in PBS+1% CAMH medium (same volume as original culture). 1 mL portions were aliquoted into fresh culture tubes, and different antibiotics or DMSO (1% maximum concentration) were added, followed by incubation at 37° C. with 250 rpm shaking speed. […]

[2] = system: Staphylococcus aureus ATCC 29213 cytoplasm pH; assay: Cytoplasmic pH measurement with pHluorin; assay type: cell-based; conditions: pHluorin fluorescence ratio, 5 minutes incubation
Experimental: Cytoplasm pH was monitored by pH sensitive fluorescent protein over time (s). 2 μM nigericin (Nig) and 2 μM valinomycin (Val) were used as positive control and 1% DMSO was used as negative control. Data represented the mean±S.D. of biological triplicates. Statistical analysis was performed by one-way ANOVA with Dunnett's post-test to calculate p-values adjusted for multiple comparisons with DMSO negative control (*p<0.05; **p<0.01; ***p<0.001).
To construct pHluorinsarA plasmid, pGLsarA plasmid vector was PCR amplified using primers pGL-f (CTGCAGGCATGCAAG; SEQ ID NO: 1) and pGL-r ([…]: SEQ ID NO: 2). […]
A pHlourin standard curve correlating pH and fluorescence ratio was constructed. Briefly, the emission at 510 nm was monitored with excitation wavelengths at 410 nm and 470 nm simultaneously following previously described protocol^18 Overnight culture Staphylococcus aureus ATCC 29213 was sub-cultured 1:100 in fresh CAMH medium and regrown to exponential phase. […] Fluorescence ratio (Excitation wavelength 410 nm/470 nm; emission wavelength 510 nm) was then measured in 1 mL cuvette using Hitachi F-4500 Florescence Spectrometer and plotted against the pH of the buffer. […]

[3] = system: Staphylococcus aureus strain USA300-LAC; assay: Non-lethal bacteremia model, bacteria loads in organs; assay type: in vivo, Balb/c mice; conditions: 10 mg/kg/day intraperitoneal, 4 days
Experimental: FIG. 9 are the bar graphs showing compound 8 and compound 35 reduce bacteria loads in different organs of the mice infected by Staphylococcus aureus. Grubb's test was performed to test for outliers. Statistical analysis was performed with two-sided paired t test. (*p<0.05).
Staphylococcus aureus strain USA300-LAC were cultured to the early exponential phase of growth, washed twice with sterile phosphate-buffered saline solution (PBS), and resuspended in PBS at 5×10^6 CFU/200 μL for non-lethal bacteremia model. The female Balb/c mice, 6-8 weeks, were infected intravenously (i.v.) through the tail vein with Staphylococcus aureus and randomized into three groups (N=14 for vehicle; N=12 for compound 8 and compound 35 respectively). One hour after infection, mice received intraperitoneal injections of compound 8 or compound 35 (10 mg/kg/day) or an injection of buffer (PBS with 2.5% DMSO and 2% Tween-80) as the control. The compound and injection buffer treatments were performed twice per day at 12-h intervals. The challenged mice were monitored for 4 days, at which point all the remaining mice were sacrificed. The CFU of S. aureus were determined in heart, liver, kidney and lung by plating in series dilution. Grubb's test was performed to test for outliers. Statistical analysis was performed with two-sided paired t test. (*p<0.05).

Row | SMILES | bactericidal effect on Staphylococcus aureus persister [1] | cytoplasm pH [2] | bacteria load in heart [3] | bacteria load in lung [3]
1 | CC(C)C[C@H](ONC(=O)[C@@H](COCc1ccccc1)ONC(=O)c1cc(C(F)(F)F)cc(C(F)(F)F)c1)C(=O)Nc1ccc2c(c1)OC(F)(F)O2 [Compound 35] | can eradicate the Staphylococcus aureus persister | – | – | –
2 | CC(C)C[C@H](ONC(=O)[C@@H](COCc1ccccc1)ONC(=O)c1cc(C(F)(F)F)cc(C(F)(F)F)c1)C(=O)Nc1ccccc1 [Compound 8] | can eradicate the Staphylococcus aureus persister | can acidify Staphylococcus aureus cytoplasm | can reduce the bacteria load | can reduce the bacteria load
